In the supplement of paper PMC10307832:

How the values were obtained:
Test in all cases: relative viability (nuclei count vs DMSO), 5 days (fraction); higher = more cells survive
Doxorubicin + Decitabine = compound: COc1cccc2c1C(=O)c1c(O)c3c(c(O)c1C2=O)C[C@@](O)(C(=O)CO)C[C@@H]3O[C@H]1C[C@H](N)[C@H](O)[C@H](C)O1 [Doxorubicin] + Nc1ncn([C@H]2C[C@H](O)[C@@H](CO)O2)c(=O)n1 [Decitabine] (partner 2 µM)
In short: (§1)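 Relative viability equals treated-well nuclei counts divided by vehicle-well nuclei counts. Counts came from 4× images of lung cancer cell lines grown in 1536-well plates for 5 days after pin-tool dosing on the day after seeding. Dosing used one drug alone or a fixed anchor-drug dose plus five library-drug doses (not always all listed) in √10 steps, and values are medians of duplicate plates.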

BAY61-3606 + Vorinostat = compound: COC1=C(C=C(C=C1)C2=CC3=NC=CN3C(=N2)NC4=C(C=CC=N4)C(=O)N)OC [BAY61-3606] + O=C(CCCCCCC(=O)Nc1ccccc1)NO [Vorinostat] (partner 1 µM)
In short: as §1

Doxorubicin + Dasatinib = compound: COc1cccc2c1C(=O)c1c(O)c3c(c(O)c1C2=O)C[C@@](O)(C(=O)CO)C[C@@H]3O[C@H]1C[C@H](N)[C@H](O)[C@H](C)O1 [Doxorubicin] + Cc1nc(Nc2ncc(C(=O)Nc3c(C)cccc3Cl)s2)cc(N2CCN(CCO)CC2)n1 [Dasatinib] (partner 0.075 µM)
In short: as §1

Doxorubicin + Vorinostat = compound: COc1cccc2c1C(=O)c1c(O)c3c(c(O)c1C2=O)C[C@@](O)(C(=O)CO)C[C@@H]3O[C@H]1C[C@H](N)[C@H](O)[C@H](C)O1 [Doxorubicin] + O=C(CCCCCCC(=O)Nc1ccccc1)NO [Vorinostat] (partner 1 µM)
In short: as §1

Row | Cell Line | relative viability (Doxorubicin + Decitabine; first compound 0.001 µM) | relative viability (Doxorubicin + Decitabine; first compound 0.003162 µM) | relative viability (Doxorubicin + Decitabine; first compound 0.01 µM) | relative viability (Doxorubicin + Decitabine; first compound 0.03162 µM) | relative viability (Doxorubicin + Decitabine; first compound 0.1 µM) | relative viability (BAY61-3606 + Vorinostat; first compound 0.02 µM) | relative viability (BAY61-3606 + Vorinostat; first compound 0.06325 µM) | relative viability (BAY61-3606 + Vorinostat; first compound 0.2 µM) | relative viability (BAY61-3606 + Vorinostat; first compound 0.6325 µM) | relative viability (BAY61-3606 + Vorinostat; first compound 2 µM) | relative viability (Doxorubicin + Dasatinib; first compound 0.001 µM) | relative viability (Doxorubicin + Dasatinib; first compound 0.003162 µM) | relative viability (Doxorubicin + Dasatinib; first compound 0.01 µM) | relative viability (Doxorubicin + Dasatinib; first compound 0.03162 µM) | relative viability (Doxorubicin + Dasatinib; first compound 0.1 µM) | relative viability (Doxorubicin + Vorinostat; first compound 0.001 µM) | relative viability (Doxorubicin + Vorinostat; first compound 0.003162 µM) | relative viability (Doxorubicin + Vorinostat; first compound 0.01 µM) | relative viability (Doxorubicin + Vorinostat; first compound 0.03162 µM) | relative viability (Doxorubicin + Vorinostat; first compound 0.1 µM)
1 | LK-2 | 0.238 | 0.376 | 0.251 | 0.258 | 0.23 | 0.264 | 0.297 | 0.301 | 0.327 | 0.306 | 0.326 | 0.284 | 0.221 | 0.286 | 0.265 | 0.318 | 0.311 | 0.266 | 0.23 | 0.307
2 | NCI-H2228 | – | – | – | – | – | 0.713 | 0.594 | 0.663 | 0.634 | 0.571 | 0.45 | 0.598 | 0.483 | 0.229 | 0.112 | 0.759 | 0.43 | 0.46 | 0.374 | 0.518
3 | NCI-H460 | 0.445 | 0.375 | 0.282 | 0.0686 | 0.0323 | 0.786 | 0.862 | 0.709 | 0.65 | 0.447 | 0.507 | 0.427 | 0.405 | 0.171 | 0.0701 | 0.654 | 0.639 | 0.492 | 0.063 | 0.0329
4 | NCI-H1993 | 0.625 | 0.582 | 0.546 | 0.551 | 0.549 | 1.06 | 0.718 | 0.756 | 0.0488 | 0.67 | 0.714 | 0.6 | 0.512 | 0.479 | 0.427 | 0.0284 | 0.67 | 0.851 | 0.509 | 0.462
5 | NCI-H2170 | 0.498 | 0.472 | 0.435 | 0.396 | 0.491 | 0.835 | 0.752 | 0.842 | 0.83 | 0.739 | 0.625 | 0.687 | 0.455 | 0.436 | 0.553 | 0.737 | 0.939 | 0.872 | 0.702 | 0.881
6 | LXF-289 | 0.41 | 0.413 | 0.395 | 0.317 | 0.392 | 0.802 | 0.839 | 0.666 | 0.849 | 0.782 | 0.224 | 0.293 | 0.241 | 0.238 | 0.281 | 0.703 | 0.787 | 0.745 | 0.805 | 0.744
7 | NCI-H596 | 1.97 | 1.09 | 1 | 0.86 | 1.08 | 0.726 | 0.568 | 0.514 | 0.771 | 0.686 | 0.663 | 0.621 | 0.681 | 0.506 | 0.579 | 0.533 | 0.594 | 0.641 | 0.605 | 0.632
8 | NCI-H3122 | 0.391 | 0.514 | 0.389 | 0.384 | 0.437 | 1.01 | 1.03 | 0.893 | 1.05 | 0.95 | 0.684 | 0.837 | 0.735 | 0.291 | 0.928 | 0.839 | 0.982 | 0.853 | 0.907 | 0.998
9 | NCI-H2023 | 0.209 | 0.219 | 0.171 | 0.0903 | 0.0802 | 0.856 | 0.671 | 0.638 | 0.82 | 0.468 | 0.672 | 0.588 | 0.431 | 0.173 | 0.0859 | 0.463 | 0.657 | 0.272 | 0.0749 | 0.109
10 | HCC-15 | 0.628 | 0.704 | 0.571 | 0.408 | 0.211 | 0.976 | 0.915 | 0.866 | 0.945 | 0.803 | – | 0.654 | 0.493 | 0.191 | 0.0861 | 0.888 | 0.847 | 0.818 | 0.736 | 0.747
11 | HCC-78 | 0.749 | 0.697 | 0.717 | 0.668 | 0.533 | 0.432 | 0.423 | 0.444 | 0.553 | 0.41 | 0.412 | 0.465 | 0.366 | 0.349 | 0.363 | 0.445 | 0.481 | 0.407 | 0.51 | 0.414
12 | COR-L23 | 0.427 | 0.452 | 0.391 | 0.253 | 0.157 | 0.564 | 0.5 | 0.511 | 0.491 | 0.323 | 0.466 | 0.629 | 0.486 | 0.27 | 0.128 | 0.48 | 0.395 | 0.356 | 0.252 | 0.157
13 | HCC-827 | 0.339 | 0.328 | 0.333 | 0.264 | 0.262 | 0.858 | 0.828 | 1.04 | 0.85 | 0.941 | 0.3 | 0.335 | 0.29 | 0.304 | 0.365 | 0.559 | 0.854 | 0.856 | 0.774 | 0.641
14 | IA-LM | – | – | – | – | – | 0.947 | 0.851 | 0.894 | 1.25 | 0.96 | – | – | – | – | – | 0.837 | 1.21 | 0.937 | 0.946 | 0.975
15 | NCI-H1563 | – | – | – | – | – | – | – | – | – | – | 0.481 | 0.505 | 0.45 | 0.462 | 0.483 | – | – | – | – | –
16 | NCI-H1792 | 0.622 | 0.677 | 0.57 | 0.485 | 0.525 | – | – | – | – | – | – | 0.901 | 0.741 | 0.769 | 0.706 | – | – | – | – | –
17 | A549 | 0.245 | 0.266 | 0.257 | 0.179 | 0.235 | – | – | – | – | – | – | – | – | – | – | – | – | – | – | –
18 | NCI-H1623 | – | – | – | – | – | – | – | – | – | – | 0.502 | 0.564 | 0.55 | 0.548 | 0.491 | – | – | – | – | –
19 | CAL-12T | – | – | – | – | – | 0.827 | 0.859 | 0.725 | 0.81 | 0.576 | 0.302 | 0.461 | 0.346 | 0.195 | 0.118 | 0.928 | 0.808 | 0.488 | 0.228 | 0.153
